Results taken from ChEMBL document CHEMBL5724914, “Linking interpersonal differences in gut microbiota composition and drug biotransformation activity” (2024).

Experiments:
[1] = (§1) The drug is tested on Z-021 corresponding to metagenome with ENA study accession number: PRJEB37062 and ENA sample accession number: ERS12561820 for biotransformation under anaerobic condition. The drug concentrations were measured over 9 timepoints collected between 0 and 24 hours of incubation by liquid-chromatography-coupled mass spectrometry (LC–MS); conditions: 2 µM
[2] = (§2) The drug is tested on Z-019 corresponding to rat gut metagenome with ENA study accession number: PRJEB37062 and ENA sample accession number: ERS12561818 for biotransformation under anaerobic condition. The drug concentrations were measured over 9 timepoints collected between 0 and 24 hours of incubation by liquid-chromatography-coupled mass spectrometry (LC–MS); conditions: 2 µM
[3] = as §2, with “on Z-018” for “on Z-019”, “to pig” for “to rat”, “number: ERS12561817” for “number: ERS12561818”; conditions: 2 µM
[4] = as §2, with “on Z-017” for “on Z-019”, “to mouse” for “to rat”, “number: ERS12561816” for “number: ERS12561818”; conditions: 2 µM
[5] = as §2, with “Z-014” for “Z-019”, “ERS12561814” for “ERS12561818”; conditions: 2 µM
[6] = as §1, with “Z-010” for “Z-021”, “ERS12561810” for “ERS12561820”; conditions: 2 µM
[7] = as §1, with “Z-005” for “Z-021”, “ERS12561805” for “ERS12561820”; conditions: 2 µM
[8] = as §2, with “on Z-001” for “on Z-019”, “to mouse” for “to rat”, “number: ERS12561801” for “number: ERS12561818”; conditions: 2 µM
[9] = as §2, with “on WLS-170” for “on Z-019”, “to human” for “to rat”, “number: ERS12561762” for “number: ERS12561818”; conditions: 2 µM
[10] = as §2, with “on WLS-090” for “on Z-019”, “to human” for “to rat”, “number: ERS12561753” for “number: ERS12561818”; conditions: 2 µM
[11] = as §2, with “on WLS-086” for “on Z-019”, “to human” for “to rat”, “number: ERS12561752” for “number: ERS12561818”; conditions: 2 µM
[12] = as §2, with “on WLS-082” for “on Z-019”, “to human” for “to rat”, “number: ERS12561751” for “number: ERS12561818”; conditions: 2 µM
[13] = as §2, with “on WLS-039” for “on Z-019”, “to human” for “to rat”, “number: ERS12561746” for “number: ERS12561818”; conditions: 2 µM
[14] = as §2, with “on WLS-027” for “on Z-019”, “to human” for “to rat”, “number: ERS12561744” for “number: ERS12561818”; conditions: 2 µM
[15] = human gut metagenome, 24 h, 2 µM
[16] = human gut metagenome, 24 h, 2 µM; remark: listed apart in the source
[17] = human gut metagenome, 24 h, 2 µM; remark: listed apart in the source
[18] = human gut metagenome, 24 h, 2 µM; remark: listed apart in the source
[19] = human gut metagenome, 24 h, 2 µM; remark: listed apart in the source
[20] = human gut metagenome, 24 h, 2 µM; remark: listed apart in the source
Also: call rule not given here.

Row | Bacterial Biotransformation [1] | Bacterial Biotransformation [2] | Bacterial Biotransformation [3] | Bacterial Biotransformation [4] | Bacterial Biotransformation [5] | Bacterial Biotransformation [6] | Bacterial Biotransformation [7] | Bacterial Biotransformation [8] | Bacterial Biotransformation [9] | Bacterial Biotransformation [10] | Bacterial Biotransformation [11] | Bacterial Biotransformation [12] | Bacterial Biotransformation [13] | Bacterial Biotransformation [14] | Bacterial Biotransformation [15] | Bacterial Biotransformation [16] | Bacterial Biotransformation [17] | Bacterial Biotransformation [18] | Bacterial Biotransformation [19] | Bacterial Biotransformation [20] | Structure (SMILES)
1 | Compound metabolized | Compound NOT metabolized | Compound metabolized | Compound NOT metabolized | Compound NOT metabolized | Compound NOT metabolized | Compound NOT metabolized | Compound metabolized | Compound metabolized | Compound NOT metabolized | Compound NOT metabolized | Compound NOT metabolized | Compound metabolized | Compound NOT metabolized | Compound NOT metabolized | Compound NOT metabolized | Compound NOT metabolized | Compound metabolized | Compound NOT metabolized | Compound metabolized | Cc1ccccc1C(OCCN(C)C)c1ccccc1.O=C(O)CC(O)(CC(=O)O)C(=O)O (stereo not given) [ORPHENADRINE CITRATE]
2 | Compound NOT metabolized | Compound NOT metabolized | Compound metabolized | Compound NOT metabolized | Compound metabolized | Compound metabolized | Compound metabolized | Compound NOT metabolized | Compound NOT metabolized | Compound NOT metabolized | Compound NOT metabolized | Compound metabolized | Compound metabolized | Compound metabolized | Compound metabolized | Compound NOT metabolized | Compound NOT metabolized | Compound NOT metabolized | Compound metabolized | Compound NOT metabolized | CC(=O)O[C@H]1C(=O)[C@@]2(C)[C@H]([C@H](OC(=O)c3ccccc3)[C@]3(O)C[C@H](OC(=O)[C@H](O)[C@@H](NC(=O)c4ccccc4)c4ccccc4)C(C)=C1C3(C)C)[C@]1(OC(C)=O)CO[C@@H]1C[C@@H]2O [PACLITAXEL]
3 | Compound NOT metabolized | Compound NOT metabolized | Compound metabolized | Compound NOT metabolized | Compound NOT metabolized | Compound metabolized | Compound metabolized | Compound NOT metabolized | Compound metabolized | Compound metabolized | Compound metabolized | Compound metabolized | Compound NOT metabolized | Compound metabolized | Compound metabolized | Compound NOT metabolized | Compound metabolized | Compound metabolized | Compound metabolized | Compound metabolized | CC(C)(C)N.CCC[C@H](N[C@@H](C)C(=O)N1[C@H](C(=O)O)C[C@@H]2CCCC[C@@H]21)C(=O)OCC [PERINDOPRIL ERBUMINE]
4 | Compound NOT metabolized | Compound NOT metabolized | Compound NOT metabolized | Compound NOT metabolized | Compound NOT metabolized | Compound metabolized | Compound NOT metabolized | Compound NOT metabolized | Compound metabolized | Compound metabolized | Compound metabolized | Compound NOT metabolized | Compound NOT metabolized | Compound NOT metabolized | Compound NOT metabolized | Compound NOT metabolized | Compound metabolized | Compound metabolized | Compound metabolized | Compound NOT metabolized | C=C[C@H]1CN2CC[C@H]1C[C@H]2[C@H](O)c1ccnc2ccc(OC)cc12.C=C[C@H]1CN2CC[C@H]1C[C@H]2[C@H](O)c1ccnc2ccc(OC)cc12.O.O.O=S(=O)(O)O [QUININE SULFATE]

Row | Structure (SMILES) | Bacterial Biotransformation [1] | Bacterial Biotransformation [2] | Bacterial Biotransformation [3] | Bacterial Biotransformation [4] | Bacterial Biotransformation [5] | Bacterial Biotransformation [6] | Bacterial Biotransformation [7] | Bacterial Biotransformation [8] | Bacterial Biotransformation [9] | Bacterial Biotransformation [10] | Bacterial Biotransformation [11] | Bacterial Biotransformation [12] | Bacterial Biotransformation [13] | Bacterial Biotransformation [14] | Bacterial Biotransformation [15] | Bacterial Biotransformation [16] | Bacterial Biotransformation [17] | Bacterial Biotransformation [18] | Bacterial Biotransformation [19] | Bacterial Biotransformation [20]
5 | CN(C)C(=O)Oc1cccc([N+](C)(C)C)c1.[Br-] [NEOSTIGMINE BROMIDE] | Compound NOT metabolized | Compound NOT metabolized | Compound NOT metabolized | Compound NOT metabolized | Compound NOT metabolized | Compound NOT metabolized | Compound NOT metabolized | Compound metabolized | Compound NOT metabolized | Compound NOT metabolized | Compound NOT metabolized | Compound NOT metabolized | Compound NOT metabolized | Compound NOT metabolized | Compound NOT metabolized | Compound NOT metabolized | Compound NOT metabolized | Compound NOT metabolized | Compound NOT metabolized | Compound NOT metabolized
6 | CC(=O)CCCCn1c(=O)c2c(ncn2C)n(C)c1=O [PENTOXIFYLLINE] | Compound NOT metabolized | Compound NOT metabolized | Compound NOT metabolized | Compound NOT metabolized | Compound NOT metabolized | Compound NOT metabolized | Compound NOT metabolized | Compound NOT metabolized | Compound metabolized | Compound metabolized | Compound metabolized | Compound NOT metabolized | Compound NOT metabolized | Compound NOT metabolized | Compound NOT metabolized | Compound NOT metabolized | Compound NOT metabolized | Compound NOT metabolized | Compound NOT metabolized | Compound metabolized
7 | CCCN1C[C@H](CSC)C[C@@H]2c3cccc4[nH]cc(c34)C[C@H]21.CS(=O)(=O)O [PERGOLIDE MESYLATE] | Compound metabolized | Compound NOT metabolized | Compound NOT metabolized | Compound NOT metabolized | Compound NOT metabolized | Compound NOT metabolized | Compound NOT metabolized | Compound NOT metabolized | Compound NOT metabolized | Compound NOT metabolized | Compound metabolized | Compound NOT metabolized | Compound NOT metabolized | Compound NOT metabolized | Compound NOT metabolized | Compound NOT metabolized | Compound NOT metabolized | Compound NOT metabolized | Compound NOT metabolized | Compound NOT metabolized
